Assay results from PubChem BioAssay (NCI).
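GI50: concentration for 50% inhibition of growth. Definition used: TGI = concentration required for complete inhibition of growth.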

Columns and labels:
Experiment in all cases: DTP human tumour cell line panel, 384-well format
OVCAR-5 ovarian = tested on: OVCAR-5 ovarian
U251 glioblastoma = tested on: U251 glioblastoma
OVCAR-3 ovarian = tested on: OVCAR-3 ovarian
KM12 colon = tested on: KM12 colon
NCI-H23 lung = tested on: NCI-H23 lung
COLO 205 colon = tested on: COLO 205 colon
CCRF-CEM leukemia = tested on: CCRF-CEM leukemia
RPMI-8226 leukemia = tested on: RPMI-8226 leukemia
MOLT-4 leukemia = tested on: MOLT-4 leukemia
SNB-19 CNS = tested on: SNB-19 CNS
NCI-H460 NSCLC = tested on: NCI-H460 NSCLC
SR leukemia = tested on: SR leukemia
NCI-H226 lung = tested on: NCI-H226 lung
SF-539 CNS = tested on: SF-539 CNS
MALME-3M melanoma = tested on: MALME-3M melanoma
NCI-H322M lung = tested on: NCI-H322M lung
IGROV1 ovarian = tested on: IGROV1 ovarian
BT-549 breast = tested on: BT-549 breast
MCF7 breast = tested on: MCF7 breast
HOP-92 NSCLC = tested on: HOP-92 NSCLC
DU-145 prostate = tested on: DU-145 prostate
UACC-257 melanoma = tested on: UACC-257 melanoma
UO-31 renal = tested on: UO-31 renal
ACHN renal = tested on: ACHN renal
MDA-MB-231 breast = tested on: MDA-MB-231 breast
SF-268 CNS = tested on: SF-268 CNS
SK-MEL-2 melanoma = tested on: SK-MEL-2 melanoma
UACC-62 melanoma = tested on: UACC-62 melanoma
MDA-MB-468 breast = tested on: MDA-MB-468 breast
A549 NSCLC = tested on: A549 NSCLC
LOX IMVI melanoma = tested on: LOX IMVI melanoma
HCT-15 colon = tested on: HCT-15 colon
SN12C renal = tested on: SN12C renal
M14 melanoma = tested on: M14 melanoma
SF-295 CNS = tested on: SF-295 CNS
NCI/ADR-RES ovarian = tested on: NCI/ADR-RES ovarian
SK-MEL-5 melanoma = tested on: SK-MEL-5 melanoma
HT29 colon = tested on: HT29 colon
OVCAR-8 ovarian = tested on: OVCAR-8 ovarian
786-0 renal = tested on: 786-0 renal
RXF 393 renal = tested on: RXF 393 renal
HL-60(TB) leukemia = tested on: HL-60(TB) leukemia
MDA-MB-435 melanoma = tested on: MDA-MB-435 melanoma
OVCAR-4 ovarian = tested on: OVCAR-4 ovarian
SK-OV-3 ovarian = tested on: SK-OV-3 ovarian
TK-10 renal = tested on: TK-10 renal
SW-620 colon = tested on: SW-620 colon
SK-MEL-28 melanoma = tested on: SK-MEL-28 melanoma
K-562 leukemia = tested on: K-562 leukemia
A498 renal = tested on: A498 renal
HCC-2998 colon = tested on: HCC-2998 colon
CAKI-1 renal = tested on: CAKI-1 renal
PC-3 prostate = tested on: PC-3 prostate
HOP-62 NSCLC = tested on: HOP-62 NSCLC
HCT-116 colon = tested on: HCT-116 colon
NCI-H522 lung = tested on: NCI-H522 lung

For Cc1c(-c2c(F)cc(C(N)=O)c3[nH]c4c(c23)CC[C@H](C(C)(C)O)C4)cccc1-n1c(=O)c2cccc(F)c2n(C)c1=O, which GI50 (OVCAR-5 ovarian) is on record?
The GI50 was 2560 nM.

What about the TGI (OVCAR-5 ovarian) of the same molecule?
The TGI was 11.3 µM.

What about the GI50 (U251 glioblastoma) of the same molecule?
The GI50 was 5.78 µM.

What about the TGI (U251 glioblastoma) of the same molecule?
Its TGI is 19.8 µM.

And the GI50 (OVCAR-3 ovarian)?
The GI50 was 2540 nM.

What about the TGI (OVCAR-3 ovarian) of the same molecule?
Its TGI is 6.39 µM.

And the GI50 (KM12 colon)?
The GI50 was 284 nM.

And the TGI (KM12 colon)?
The TGI was 1540 nM.

And the GI50 (NCI-H23 lung)?
The GI50 was 2670 nM.

And the TGI (NCI-H23 lung)?
The TGI was 10.9 µM.

What about the GI50 (COLO 205 colon) of the same molecule?
The GI50 was 1610 nM.

And the TGI (COLO 205 colon)?
Its TGI is 4.46 µM.

What about the GI50 (CCRF-CEM leukemia) of the same molecule?
The GI50 was 3.33 µM.

And the TGI (CCRF-CEM leukemia)?
The TGI was 9.78 µM.

And the GI50 (RPMI-8226 leukemia)?
Its GI50 is 1320 nM.

And the TGI (RPMI-8226 leukemia)?
The TGI was 2700 nM.

And the GI50 (MOLT-4 leukemia)?
The GI50 was 1530 nM.

And the TGI (MOLT-4 leukemia)?
Its TGI is 2930 nM.

And the GI50 (SNB-19 CNS)?
Its GI50 is 9.94 µM.

And the TGI (SNB-19 CNS)?
The TGI was 24.5 µM.

What about the GI50 (NCI-H460 NSCLC) of the same molecule?
Its GI50 is 2900 nM.

What about the TGI (NCI-H460 NSCLC) of the same molecule?
Its TGI is 13.1 µM.

And the GI50 (SR leukemia)?
Its GI50 is 1660 nM.

What about the TGI (SR leukemia) of the same molecule?
Its TGI is 3.04 µM.

What about the GI50 (NCI-H226 lung) of the same molecule?
Its GI50 is 2560 nM.

And the TGI (NCI-H226 lung)?
Its TGI is 10.4 µM.

And the GI50 (SF-539 CNS)?
Its GI50 is 8 µM.

And the TGI (SF-539 CNS)?
The TGI was 20.9 µM.

And the GI50 (MALME-3M melanoma)?
The GI50 was 1790 nM.

What about the TGI (MALME-3M melanoma) of the same molecule?
The TGI was 6.95 µM.

What about the GI50 (NCI-H322M lung) of the same molecule?
Its GI50 is 4.08 µM.

And the TGI (NCI-H322M lung)?
The TGI was 23.6 µM.

What about the GI50 (IGROV1 ovarian) of the same molecule?
Its GI50 is 3.17 µM.

What about the TGI (IGROV1 ovarian) of the same molecule?
The TGI was 9.53 µM.

What about the GI50 (BT-549 breast) of the same molecule?
Its GI50 is 5.1 µM.

And the TGI (BT-549 breast)?
The TGI was 15.7 µM.

What about the GI50 (MCF7 breast) of the same molecule?
The GI50 was 1290 nM.

What about the TGI (MCF7 breast) of the same molecule?
Its TGI is 3.56 µM.

What about the GI50 (HOP-92 NSCLC) of the same molecule?
The GI50 was 1450 nM.

And the TGI (HOP-92 NSCLC)?
Its TGI is 4.8 µM.

What about the GI50 (DU-145 prostate) of the same molecule?
The GI50 was 4.85 µM.

And the TGI (DU-145 prostate)?
Its TGI is 23 µM.

And the GI50 (UACC-257 melanoma)?
Its GI50 is 2290 nM.

What about the TGI (UACC-257 melanoma) of the same molecule?
Its TGI is 10.7 µM.

What about the GI50 (UO-31 renal) of the same molecule?
Its GI50 is 2000 nM.

And the TGI (UO-31 renal)?
The TGI was 5.39 µM.

And the GI50 (ACHN renal)?
Its GI50 is 1970 nM.

What about the TGI (ACHN renal) of the same molecule?
The TGI was 5.73 µM.

And the GI50 (MDA-MB-231 breast)?
The GI50 was 3.59 µM.

What about the TGI (MDA-MB-231 breast) of the same molecule?
The TGI was 14.5 µM.

What about the GI50 (SF-268 CNS) of the same molecule?
The GI50 was 5.58 µM.

And the TGI (SF-268 CNS)?
Its TGI is 21.4 µM.

And the GI50 (SK-MEL-2 melanoma)?
Its GI50 is 2180 nM.

What about the TGI (SK-MEL-2 melanoma) of the same molecule?
The TGI was 7.9 µM.

And the GI50 (UACC-62 melanoma)?
Its GI50 is 3.6 µM.

And the TGI (UACC-62 melanoma)?
The TGI was 15.7 µM.

What about the GI50 (MDA-MB-468 breast) of the same molecule?
The GI50 was 2860 nM.

And the TGI (MDA-MB-468 breast)?
The TGI was 5.86 µM.

What about the GI50 (A549 NSCLC) of the same molecule?
The GI50 was 2430 nM.

And the TGI (A549 NSCLC)?
The TGI was 9.34 µM.

And the GI50 (LOX IMVI melanoma)?
The GI50 was 5.98 µM.

And the TGI (LOX IMVI melanoma)?
Its TGI is 16.2 µM.

And the GI50 (HCT-15 colon)?
Its GI50 is 3.7 µM.

And the TGI (HCT-15 colon)?
The TGI was 13.6 µM.

What about the GI50 (SN12C renal) of the same molecule?
Its GI50 is 3.26 µM.

What about the TGI (SN12C renal) of the same molecule?
The TGI was 13.1 µM.

What about the GI50 (M14 melanoma) of the same molecule?
Its GI50 is 2200 nM.

And the TGI (M14 melanoma)?
Its TGI is 10.1 µM.

What about the GI50 (SF-295 CNS) of the same molecule?
Its GI50 is 3.42 µM.

And the TGI (SF-295 CNS)?
The TGI was 12 µM.

What about the GI50 (NCI/ADR-RES ovarian) of the same molecule?
Its GI50 is 3.55 µM.

What about the TGI (NCI/ADR-RES ovarian) of the same molecule?
Its TGI is 13 µM.

And the GI50 (SK-MEL-5 melanoma)?
Its GI50 is 4.31 µM.

What about the TGI (SK-MEL-5 melanoma) of the same molecule?
The TGI was 14.1 µM.

What about the GI50 (HT29 colon) of the same molecule?
The GI50 was 1470 nM.

And the TGI (HT29 colon)?
The TGI was 11.8 µM.

What about the GI50 (OVCAR-8 ovarian) of the same molecule?
Its GI50 is 4.62 µM.

What about the TGI (OVCAR-8 ovarian) of the same molecule?
Its TGI is 22.9 µM.

And the GI50 ([…]-0 renal)?
The GI50 was 3.27 µM.

And the TGI (786-0 renal)?
The TGI was 14.5 µM.

What about the GI50 (RXF 393 renal) of the same molecule?
The GI50 was 1960 nM.

What about the TGI (RXF 393 renal) of the same molecule?
The TGI was 4.07 µM.

And the GI50 (HL-60(TB) leukemia)?
The GI50 was 1120 nM.

And the TGI (HL-60(TB) leukemia)?
Its TGI is 2340 nM.

What about the GI50 (MDA-MB-435 melanoma) of the same molecule?
Its GI50 is 4.13 µM.

What about the TGI (MDA-MB-435 melanoma) of the same molecule?
The TGI was 15.1 µM.

And the GI50 (OVCAR-4 ovarian)?
The GI50 was 2800 nM.

What about the TGI (OVCAR-4 ovarian) of the same molecule?
Its TGI is 7.38 µM.

What about the GI50 (SK-OV-3 ovarian) of the same molecule?
The GI50 was 2260 nM.

And the TGI (SK-OV-3 ovarian)?
The TGI was 8.77 µM.

What about the GI50 (TK-10 renal) of the same molecule?
The GI50 was 2160 nM.

And the TGI (TK-10 renal)?
Its TGI is 4.76 µM.

What about the GI50 (SW-620 colon) of the same molecule?
Its GI50 is 2940 nM.

And the TGI (SW-620 colon)?
The TGI was 13.5 µM.

And the GI50 (SK-MEL-28 melanoma)?
The GI50 was 2870 nM.

What about the TGI (SK-MEL-28 melanoma) of the same molecule?
The TGI was 13.8 µM.

What about the GI50 (K-562 leukemia) of the same molecule?
The GI50 was 4.66 µM.

And the TGI (K-562 leukemia)?
Its TGI is over 100 µM.

And the GI50 (A498 renal)?
The GI50 was 3.25 µM.

What about the TGI (A498 renal) of the same molecule?
Its TGI is 9.41 µM.

And the GI50 (HCC-2998 colon)?
The GI50 was 2330 nM.

And the TGI (HCC-2998 colon)?
The TGI was 6.99 µM.

And the GI50 (CAKI-1 renal)?
Its GI50 is 2210 nM.

And the TGI (CAKI-1 renal)?
Its TGI is 5.72 µM.

What about the GI50 (PC-3 prostate) of the same molecule?
Its GI50 is 3.85 µM.

And the TGI (PC-3 prostate)?
Its TGI is 17 µM.

What about the GI50 (HOP-62 NSCLC) of the same molecule?
The GI50 was 8.36 µM.

What about the TGI (HOP-62 NSCLC) of the same molecule?
Its TGI is 26.5 µM.

And the GI50 (HCT-116 colon)?
The GI50 was 3.14 µM.

What about the TGI (HCT-116 colon) of the same molecule?
The TGI was 12.1 µM.

What about the GI50 (NCI-H522 lung) of the same molecule?
The GI50 was 1890 nM.

And the TGI (NCI-H522 lung)?
The TGI was 6.56 µM.
